This note sets out measurements from article PMC4633953, “FR171456 is a specific inhibitor of mammalian NSDHL and yeast Erg26p” (Nature Communications, 2015).

“And” between values parts separate entries of the source, which are not always exact repeats. Equal values may be shown once.

One assay addresses T1, Erg26p (Saccharomyces cerevisiae, UniProt P53199).
T1 sequence (P53199 1-349): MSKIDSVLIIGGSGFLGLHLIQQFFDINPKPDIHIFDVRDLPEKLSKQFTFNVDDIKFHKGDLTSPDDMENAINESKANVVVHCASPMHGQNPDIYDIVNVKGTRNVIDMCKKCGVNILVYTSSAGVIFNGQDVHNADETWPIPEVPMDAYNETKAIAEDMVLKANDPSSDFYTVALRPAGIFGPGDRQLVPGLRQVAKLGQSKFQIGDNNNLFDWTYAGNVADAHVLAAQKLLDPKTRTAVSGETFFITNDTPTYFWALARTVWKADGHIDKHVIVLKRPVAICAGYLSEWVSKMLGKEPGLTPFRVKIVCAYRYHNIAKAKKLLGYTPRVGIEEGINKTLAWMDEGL
Put plainly: In vitro microsomal Erg26p activity assay (GC-MS).

For assay [1], the system named is Candida parapsilosis NF2903. The assay can be described thus: Antifungal MIC. The assay is classed as cell-based. Particulars: Lodderomyces parapsilosis.
In assay [2] the test system is ERG26 heterozygous strain (erg26Δ/ERG26). Put plainly: Haploinsufficiency profiling (HIP). The format is cell-based, S. cerevisiae. Particulars: FR171456 at IC30 (4 μM). As for the experimental part:
The HIP assay was performed in 24-well plates (Greiner 662102), with 1.6 ml per well YPD. Experimental compounds were tested at n=2 within the same plate at or close to their IC30 concentration. Each plate contained two no drug controls, one positive control (Benomyl), 10 experimental compounds in duplicates and one contamination control that received no cells. A standard experiment was 4 plates per 40 experimental compounds processed robotically without human intervention. YPD per compound filled wells were inoculated with ∼250 yeast cells per strain (100 μl of a 1.5-OD600 per ml culture) from an overnight log phase preculture to start the experiment (Supplementary Fig. 2). The plates were pipetted with a standard 96 pipettor head by providing tip boxes preconfigured with a special tip pattern. Plates were incubated for 16 h in a robotic shaking incubator at 30 °C/550 r.p.m. allowing for ∼5 doublings. ∼250 yeast cells per strain (120 μl of a 1.2-OD600 per ml culture) were subsequently transferred into a preconfigured 24-well plate that was stored in a robotic plate reservoir at 4 °C until 30 min prior to its use where it was prewarmed to 30 °C. Once inoculated the new plate was incubated at 30 °C/550 r.p.m. to allow the next five yeast generations (generation 6–10) and the plate containing the first five doubling cultures was stored at 4 °C. […]

Assay [3] deals with HCV replicon subgenomic genotype 1b. Put plainly: HCV replicon assay in Huh-7 cells (luciferase). Particulars: Hepatitis C virus; Huh-7 cell-based assay, 48 h. As for the experimental part:
The inhibitor screening was performed in 1,536-well plate with 3,000 cells per well, using Huh-7 cells containing the HCV replicon subgenomic genotype 1b, maintained in DMEM, supplemented with (1 × ) L-glutamine (L-Glue), 1 × non-essential amino acids, 10% heat-inactivated fetal bovine serum (FBS), and 1 mg ml^–1 G418, and incubated with compounds for 48 h at 37 °C, 5% CO2. […] Following compound incubation, Resazurin solution (10 × : 1 μg μl^–1 Resazurin in DMSO) diluted to 1 × was then added to a volume of 0.5 μl to each well and incubated for further 3 h at 37 °C, 5% CO2 to monitor cell viability. Subsequently 15 μl, diluted 1:2 from stock of Steady- Glo (Promega) was added and the luminescence from the HCV replicon was monitored using the Envision (Envision US Lum, using 0.1 s per well measurement time).

The subject of a further assay is Candida krusei NF2902. The assay can be described thus: Antifungal MIC. Particulars: Pichia kudriavzevii. The format is cell-based.

Procedure for Erg26p: To test this hypothesis an in vitro microsomal Erg26p activity assay[30] was used. Erg26p activity was directly assessed in the presence of increasing concentrations of FR171456 (10 nM–0.1 mM) in the presence of 150 μM carboxysterol substrate (Fig. 1c) and the cofactor NAD^+ (0.5 mM) followed by GC-MS detection of the product 4α-methyl-cholest-8,24-dien-3-one.
Wild-type yeast (FL200) microsomes were prepared as follows. Yeast cells were disrupted by glass bead homogenization (0.45-mm diameter) in 100 mM phosphate buffer (pH 7.5) containing 1.5 mM reduced glutathione and 30 mM nicotinamide for 8 min at 0 °C[44]. The cell extract was obtained by centrifugation at 10,000 × g for 20 min. Microsomes were then isolated by centrifuging the cell extract supernatant at 100,000 × g for 90 min. The resulting microsomal pellet was resuspended in 100 mM phosphate buffer (pH 7.5) containing 3 mM reduced glutathione and 20% glycerol (v/v) using an Elvehjem–Potter homogenizer. Yeast microsomes (1.2 mg of protein) were incubated in the presence of 4α-carboxy-4β-methyl-cholest-8,24-dien-3β-ol (50–300 mM) and NAD^+ (0.5 mM) for 35–45 min at 30 °C. After addition of coprostanone (2–6 μg) as internal standard, the reactions were extracted as described previously[12]. The extract was analysed by TLC on silica gel and eluted twice with CH2Cl2. The fraction migrating between a standard of 4-desmethyl-sterone (RF= 0.50) and 4,4-dimethyl-sterone (RF=0.70) was eluted and analysed using a GC-MS spectrometer (Agilent 5973 N).
In the case of inhibition assays, microsomes were incubated for 35–45 min at 30 °C in the presence of 4α-carboxy-4β-methyl-cholest-8,24-dien-3β-ol (50–300 mM) and a range of inhibitor concentration (0.01–100 μM) from which a dose–response curve was obtained allowing the corresponding I50 values to be determined.
The GC-MS spectrometer (Agilent 5973 N) was equipped with an ‘on column' injector and a capillary column (30 × 0.25 mm) coated with DB5 (H2 flow rate of 2 ml min^−1). The temperature program included a 30 °C min^−1 increase from 60 °C to 240 °C, and followed by a 2 °C/min increase from 240 °C to 280 °C. The areas of the GC peaks of coprostanone (tR=1.000) and of the produced 4α-methyl-cholest-8,24-dien-3-one (tR=1.139), corrected from endogenous component of the same tR (1.139) determined in the blank (boiled microsomes), allowed the rate of transformation of 4α-carboxy-4β-methyl-cholest-8,24-dien-3β-ol to be measured. Under these conditions, the estimated limit of detection of the 3βHSD/D activity was 0.1 nmol h^−1 mg^−1.

Usually Ki stands for a measure of affinity in units of concentration, obtained from inhibition or displacement. A higher Ki goes with weaker binding. In general, MIC refers to the lowest concentration found to suppress growth. In general, IC50 refers to the midpoint of a concentration-inhibition curve. At Erg26p, `C=C(CCC(C)C1CCC2C1(C)CC(O)C13CC14C(=O)CC(O)C(C)(C(=O)O)C4C(=O)CC23O)C(C)C` [FR171456, (1R,2aR,3R,5aR,5bS,7aR,8S,9S,11aS,12aR)-1,5b,9-trihydroxy-2a,8-dimethyl-3-((R)-6-methyl-5-methyleneheptan-2-yl)-7,11-dioxohexadecahydrocyclopenta[a]cyclopropa[e]-phenanthrene-8-carboxylic acid] registered a Ki of 1350 ± 300 nM. Moreover, on Erg26p (for the carboxysterol substrate), the I50/Km ratio is given as ~4 × 10^−3. The MIC in assay [1] was 32 µg/mL and 72 µM; against Candida krusei NF2902, 64 µg/mL and 144 µM. In addition, the “strain sensitivity in HIP profile” value in assay [2] is reported as “most significant hypersensitivity”. Moreover, the IC50 in assay [3] amounted to 6.3 nM.
